PubChem BioAssay AID256 (DTP/NCI, 2004)
Several values for one entry are separate records, joined by “and”; a condition that tells them apart may be missing. Equal values may be shown once. Toxic doses and inconclusive results are not listed. The calls were made as follows: active = survival T/C of 150% or more; inactive = T/C below 125% in these data.

Tested on: CD2F1 mice, L1210 leukemia ip, survival T/C
Experiment: NCI In Vivo Anticancer Drug Screen. Data for tumor model L1210 Leukemia (intraperitoneal) in CD2F1 (CDF1) mice
Details: higher = longer survival
Summary of the method: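 Antitumor effect is scored in animals hosting a serially transplanted tumor. Values compare compound-dosed animals against vehicle-only controls as a simple quotient.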

[1] = endpoint: mean survival time, dose: 100.0 mg/kg/injection, schedule: Q04DX003 (ip), vehicle: saline with Tween-80
[2] = endpoint: mean survival time, dose: 200.0 mg/kg/injection, schedule: Q04DX003 (ip), vehicle: saline with Tween-80
[3] = endpoint: mean survival time, dose: 400.0 mg/kg/injection, schedule: Q04DX003 (ip), vehicle: saline with Tween-80
[4] = endpoint: mean survival time, dose: 100.0 mg/kg/injection, schedule: Q01DX009 (ip), vehicle: saline with Tween-80
[5] = endpoint: mean survival time, dose: 200.0 mg/kg/injection, schedule: Q01DX009 (ip), vehicle: saline with Tween-80
[6] = endpoint: mean survival time, dose: 400.0 mg/kg/injection, schedule: Q01DX009 (ip), vehicle: saline with Tween-80
[7] = endpoint: mean survival time, dose: 100.0 mg/kg/injection, schedule: Q04DX002 (ip), vehicle: saline with Tween-80
[8] = endpoint: mean survival time, dose: 200.0 mg/kg/injection, schedule: Q04DX002 (ip), vehicle: saline with Tween-80
[9] = endpoint: mean survival time, dose: 400.0 mg/kg/injection, schedule: Q04DX002 (ip), vehicle: saline with Tween-80
[10] = endpoint: mean survival time, dose: 25.0 mg/kg/injection, schedule: Q01DX001 (ip), vehicle: saline with Tween-80

Measured: T/C

CCCCN(C)N=Nc1ccc(C(N)=O)cc1
inactive: endpoint: mean survival time, dose: 18.75 mg/kg/injection, schedule: Q01DX009 (ip), vehicle: Klucel (hydroxypropylcellulose) (HPC) 107 % of control | endpoint: mean survival time, dose: 37.5 mg/kg/injection, schedule: Q01DX009 (ip), vehicle: Klucel (hydroxypropylcellulose) (HPC) 113 % of control | endpoint: mean survival time, dose: 75.0 mg/kg/injection, schedule: Q01DX009 (ip), vehicle: Klucel (hydroxypropylcellulose) (HPC) 121 % of control | endpoint: mean survival time, dose: 150.0 mg/kg/injection, schedule: Q01DX009 (ip), vehicle: Klucel (hydroxypropylcellulose) (HPC) 106 % of control

c1ccc2c(c1)ccc1c2c[n+](CCCCCCCC[n+]2cc3c4ccccc4ccc3c3ccccc32)c2ccccc12
inactive: endpoint: mean survival time, dose: 1.56 mg/kg/injection, schedule: Q04DX003 (ip), vehicle: distilled water + Tween-80 114 % of control | endpoint: mean survival time, dose: 3.13 mg/kg/injection, schedule: Q04DX003 (ip), vehicle: distilled water + Tween-80 124 % of control

Oc1ccc(C(O)(c2ccccc2)c2ccc(O)c3ccccc23)c2ccccc12
inactive: [1] 102 % of control | [2] 96 % of control | [3] 103 % of control

Brc1ccc(-c2nc3sc(-c4ccc(Br)cc4)nc3s2)cc1
inactive: [4] 108 % of control | [5] 104 % of control | [6] 102 % of control

C/C=C/c1ccc(OC(C)=O)c(OC)c1
inactive: [4] 100 % of control | [1] 94 % of control | [5] 94 % of control | [2] 100 % of control | [6] 105 % of control | [3] 94 % of control

CC(C)(C)CC(C)(C)c1ccc(OCCOc2ccccc2NC(=O)CC(=O)c2cccc([N+](=O)[O-])c2)cc1
inactive: endpoint: mean survival time, dose: 100.0 mg/kg/injection, schedule: Q01DX009 (ip), vehicle: Klucel (hydroxypropylcellulose) (HPC) 98 % of control | [1] 97 % of control | endpoint: mean survival time, dose: 200.0 mg/kg/injection, schedule: Q01DX009 (ip), vehicle: Klucel (hydroxypropylcellulose) (HPC) 93 % of control | [2] 101 % of control | endpoint: mean survival time, dose: 400.0 mg/kg/injection, schedule: Q01DX009 (ip), vehicle: Klucel (hydroxypropylcellulose) (HPC) 90 % of control | [3] 92 % of control

O=C1NC2COC3COc4ccccc4OC3C2N1Cc1ccccc1 (centres undefined)
inactive: endpoint: mean survival time, dose: 75.0 mg/kg/injection, schedule: Q01DX001 (ip), vehicle: saline with Tween-80 93 % of control | endpoint: mean survival time, dose: 150.0 mg/kg/injection, schedule: Q01DX001 (ip), vehicle: saline with Tween-80 95 % of control | endpoint: mean survival time, dose: 300.0 mg/kg/injection, schedule: Q01DX001 (ip), vehicle: saline with Tween-80 93 % of control

CCn1c(-c2cccc(N)c2)cc(=O)n1-c1ccccc1
inactive: [1] 98 % of control | [2] 96 % of control | [3] 90 % of control

CCOc1ccccc1/C=C1\N=C(c2ccc(Cl)cc2)OC1=O
inactive: [7] 94 % of control | [8] 98 % of control | [9] 94 % of control

CCN(CC)C(=O)c1ccncc1
inactive: endpoint: mean survival time, dose: 100.0 mg/kg/injection, schedule: Q04DX003 (ip), vehicle: saline 101 % of control | endpoint: mean survival time, dose: 200.0 mg/kg/injection, schedule: Q04DX003 (ip), vehicle: saline 104 % of control | endpoint: mean survival time, dose: 400.0 mg/kg/injection, schedule: Q04DX003 (ip), vehicle: saline 101 % of control

O=C1CCCC(c2ccccc2)c2ccccc21 (centres undefined)
inactive: endpoint: mean survival time, dose: 100.0 mg/kg/injection, schedule: Q01DX001 (ip), vehicle: saline 97 % of control | endpoint: mean survival time, dose: 200.0 mg/kg/injection, schedule: Q01DX001 (ip), vehicle: saline 97 % of control | endpoint: mean survival time, dose: 400.0 mg/kg/injection, schedule: Q01DX001 (ip), vehicle: saline 97 % of control

Cc1c2ccccc2c(CN2CC(O)CC2C(=O)O)c2ccc3ccccc3c12 (centres undefined)
inactive: [1] 102 % of control | [2] 100 % of control | [3] 87 % of control

COCCOC
inactive: endpoint: mean survival time, dose: 200.0 mg/kg/injection, schedule: Q01DX Z (ip), vehicle: carboxymethylcellulose (CMC) 103 % of control | endpoint: mean survival time, dose: 300.0 mg/kg/injection, schedule: Q01DX Z (ip), vehicle: carboxymethylcellulose (CMC) 110 % of control | endpoint: mean survival time, dose: 450.0 mg/kg/injection, schedule: Q01DX Z (ip), vehicle: carboxymethylcellulose (CMC) 114 % of control | endpoint: mean survival time, dose: 675.0 mg/kg/injection, schedule: Q01DX Z (ip), vehicle: carboxymethylcellulose (CMC) 102 % of control

[N-]=[N+]=[N-]
inactive: endpoint: median survival time, dose: 0.75 mg/kg/injection, schedule: Q01DX009 (ip), vehicle: saline 101 % of control | endpoint: median survival time, dose: 1.5 mg/kg/injection, schedule: Q01DX009 (ip), vehicle: saline 101 % of control | endpoint: median survival time, dose: 3.0 mg/kg/injection, schedule: Q01DX009 (ip), vehicle: saline 93 % of control | endpoint: median survival time, dose: 6.0 mg/kg/injection, schedule: Q01DX009 (ip), vehicle: saline 103 % of control | endpoint: median survival time, dose: 12.0 mg/kg/injection, schedule: Q01DX009 (ip), vehicle: saline 92 % of control

O=C(CC(O)C(Cl)(Cl)Cl)c1ccccc1 (centres undefined)
inactive: endpoint: mean survival time, dose: 50.0 mg/kg/injection, schedule: Q04DX002 (ip), vehicle: saline with Tween-80 88 % of control | [7] 88 % of control

[I][Pt][I].c1ccc([PH+](c2ccccc2)c2ccccc2)cc1.c1ccc([PH+](c2ccccc2)c2ccccc2)cc1
inactive: endpoint: mean survival time, dose: 6.25 mg/kg/injection, schedule: Q04DX002 (ip), vehicle: saline with Tween-80 104 % of control | endpoint: mean survival time, dose: 12.5 mg/kg/injection, schedule: Q04DX002 (ip), vehicle: saline with Tween-80 93 % of control | endpoint: mean survival time, dose: 25.0 mg/kg/injection, schedule: Q04DX002 (ip), vehicle: saline with Tween-80 96 % of control | [7] 87 % of control | [9] 91 % of control

CC1CC[N-]CC1.CC1CC[N-]CC1.[Cl][Pt+2][Cl]
inactive: endpoint: mean survival time, dose: 6.25 mg/kg/injection, schedule: Q01DX001 (ip), vehicle: saline with Tween-80 101 % of control | endpoint: mean survival time, dose: 12.5 mg/kg/injection, schedule: Q01DX001 (ip), vehicle: saline with Tween-80 111 % of control | [10] 112 % of control

CCOC(=O)C(CO)(NC(C)=O)C(=O)OCC
inactive: [4] 94 % of control | [5] 98 % of control | [6] 105 % of control

CC(=O)c1cc(F)ccc1O
inactive: [4] 92 % of control | [5] 111 % of control | [6] 88 % of control

CC(C)(C)C(=O)CC1(O)C(=O)Nc2cccc(C(F)(F)F)c21 (centres undefined)
inactive: [7] 102 % of control | [8] 109 % of control | [9] 102 % of control

[O-]/[N+](=C\Cc1ccccc1)c1ccccc1
inactive: [7] 90 % of control | [8] 87 % of control | [9] 90 % of control

Nc1nc(N2CCCCC2)c2ncn(C3OC(CO)C(O)C3O)c2n1 (centres undefined)
inactive: endpoint: mean survival time, dose: 12.5 mg/kg/injection, schedule: Q01DX005 (ip), vehicle: water 106 % of control | endpoint: mean survival time, dose: 25.0 mg/kg/injection, schedule: Q01DX005 (ip), vehicle: water 101 % of control | endpoint: mean survival time, dose: 50.0 mg/kg/injection, schedule: Q01DX005 (ip), vehicle: water 112 % of control | endpoint: mean survival time, dose: 100.0 mg/kg/injection, schedule: Q01DX005 (ip), vehicle: water 96 % of control | endpoint: mean survival time, dose: 200.0 mg/kg/injection, schedule: Q01DX005 (ip), vehicle: water 108 % of control

CC1(C)N=C(N)N=C(N)N1c1ccc(OCCCCNC(=O)Nc2ccc(S(=O)(=O)F)cc2)c(Cl)c1
inactive: [10] 101 % of control | endpoint: mean survival time, dose: 50.0 mg/kg/injection, schedule: Q01DX001 (ip), vehicle: saline with Tween-80 95 % of control | endpoint: mean survival time, dose: 100.0 mg/kg/injection, schedule: Q01DX001 (ip), vehicle: saline with Tween-80 94 % of control and 95 % of control

COc1ccc(SC(=O)N(C)C)cc1
inactive: endpoint: mean survival time, dose: 25.0 mg/kg/injection, schedule: Q01DX009 (ip), vehicle: saline with Tween-80 100 % of control | endpoint: mean survival time, dose: 50.0 mg/kg/injection, schedule: Q01DX009 (ip), vehicle: saline with Tween-80 103 % of control | [4] 95 % of control and 98 % of control
